Data set [1] in a line: Protein binding in human plasma assessed as unbound fraction at 5 uM measured after 4 hrs by LC-MS/MS analysis. It counts as ADME, cell-free.
Data set [2] is described as follows: Metabolic stability in Dunkin-Hartley guinea pig lung S9 fraction assessed as half life at 1 uM measured after 0 to 60 mins in presence of NADPH by LC-MS/MS analysis. Type of data set: ADME, subcellular, Cavia porcellus. Conditions: time 0-60 min.
Data set [3] deals with Trachea. As to the kind of experiment: Bifunctional antagonist activity at muscarinic M3 receptor /agonist activity at beta-2 adrenoceptor in Dunkin-Hartley guinea pig trachea assessed as inhibition of acetylcholine-induced bronchoconstriction at 3 nmol/Kg, IT(Intratracheal) measured after 1 hr by Konzett-Roessler methodology relative to control. Type of data set: functional. Conditions: Cavia porcellus.

A short description of data set [4]: Metabolic stability in rat lung S9 fraction assessed as half life at 1 uM measured after 0 to 60 mins in presence of NADPH by LC-MS/MS analysis. As to conditions: time 0-60 min. Type of data set: ADME, subcellular.
Data set [5] deals with Trachea. As to the kind of experiment: Bifunctional antagonist activity at muscarinic M3 receptor /agonist activity at beta-2 adrenoceptor in Dunkin-Hartley guinea pig trachea assessed as inhibition of acetylcholine-induced bronchoconstriction at 3 nmol/Kg, IT(Intratracheal) measured after 24 hr by Konzett-Roessler methodology relative to control. Type of data set: functional. Conditions: Cavia porcellus.

The nature of data set [6]: In vivo agonist activity at beta-2 adrenoceptor in Dunkin-Hartley guinea pig trachea assessed as inhibition of histamine-induced bronchoconstriction at 3 nmol/Kg, IT(Intratracheal) measured after 1 hr by Konzett-Roessler methodology relative to control. It counts as functional. As to conditions: Cavia porcellus.
A short description of data set [7]: Efflux ratio of apparent permeability from basolateral to apical side over apical to basolateral side in human Caco-2 cells at 10 uM and measured after 2 hrs by LC-MS/MS analysis. It counts as ADME, cell-based.
A short description of data set [8]: In vivo agonist activity at beta-2 adrenoceptor in Dunkin-Hartley guinea pig trachea assessed as inhibition of histamine-induced bronchoconstriction at 3 nmol/Kg, IT(Intratracheal) measured after 24 hr by Konzett-Roessler methodology relative to control. Type of data set: functional. As to conditions: Cavia porcellus.
The nature of data set [9]: Apparent permeability across basolateral to apical side in human Caco-2 cells at 10 uM and measured after 2 hrs by LC-MS/MS analysis. Type of data set: ADME, cell-based.
Data set [10] is described as follows: In vivo antagonist activity at muscarinic M3 receptor in Dunkin-Hartley guinea pig trachea assessed as inhibition of acetylcholine-induced bronchoconstriction at 3 nmol/Kg, IT(Intratracheal) measured after 24 hr in presence of ICI-118551 by Konzett-Roessler methodology relative to control. Type of data set: functional. As to conditions: Cavia porcellus.
Data set [11] is described as follows: Metabolic stability in rat hepatocytes assessed as clearance at 1 uM measured per 10^6 cells and incubated upto 90 mins by LC-MS/MS analysis. As to conditions: read-out: CLH. It counts as ADME, cell-based, Hepatocyte.
Data set [12] can be described thus: Apparent permeability across apical to basolateral side in human Caco-2 cells at 10 uM and measured after 2 hrs by LC-MS/MS analysis. It counts as ADME, cell-based.
A short description of data set [13]: Metabolic stability in human lung S9 fraction assessed as half life at 1 uM measured after 0 to 60 mins in presence of NADPH by LC-MS/MS analysis. It counts as ADME, subcellular. Conditions: time 0-60 min.
Data set [14] in a line: Protein binding in Dunkin-Hartley guinea pig plasma assessed as unbound fraction at 5 uM measured after 4 hrs by LC-MS/MS analysis. It counts as ADME, cell-free, Cavia porcellus.
The nature of data set [15]: Metabolic stability in Dunkin-Hartley guinea pig hepatocytes assessed as clearance at 1 uM measured per 10^6 cells and incubated upto 90 mins by LC-MS/MS analysis. Type of data set: ADME, cell-based, Cavia porcellus, Hepatocyte. Conditions: read-out: CLH.
The nature of data set [16]: Metabolic stability in human hepatocytes assessed as clearance at 1 uM measured per 10^6 cells and incubated upto 90 mins by LC-MS/MS analysis. Conditions: read-out: CLH. It counts as ADME, cell-based, Hepatocyte.
A short description of data set [17]: Metabolic stability in human liver microsomes assessed as clearance at 1 uM measured per mg protein incubated upto 60 mins in presence of NADPH by LC-MS/MS analysis. It counts as ADME, Microsome. Conditions: read-out: CLH.
Data set [18] is described as follows: Protein binding in rat plasma assessed as unbound fraction at 5 uM measured after 4 hrs by LC-MS/MS analysis. Type of data set: ADME, cell-free.
The nature of data set [19]: Metabolic stability in rat liver microsomes assessed as clearance at 1 uM measured per mg protein incubated upto 60 mins in presence of NADPH by LC-MS/MS analysis. It counts as ADME, Microsome. As to conditions: read-out: CLH.
A short description of data set [20]: In vivo antagonist activity at muscarinic M3 receptor in Dunkin-Hartley guinea pig trachea assessed as inhibition of acetylcholine-induced bronchoconstriction at 3 nmol/Kg, IT(Intratracheal) measured after 1 hr in presence of ICI-118551 by Konzett-Roessler methodology relative to control. As to conditions: Cavia porcellus. It counts as functional.

Molecules are shown by their SMILES.

As to `O=C(N[C@@H](c1ccccc1)c1cccc(OCc2ccc(CCNC[C@H](O)c3ccc(O)c4[nH]c(=O)ccc34)cc2)c1)O[C@H]1CN2CCC1CC2` (racemic), the Fu in data set [1] is recorded as 98%; in [14] it was 99%; in [18], 98%. For the same compound, the results for the half-life at 1 µM in data set [2], in data set [4] and in [13] were 1.17 h, 3.33 h and 3.6 h, respectively. The inhibition in vivo at 0.003 µmol/kg with Trachea [3] was determined as 91%; with Trachea [5] it was 77%; in [6], 67%; in data set [8], 35%; in data set [10], 54%; in data set [20], 78%. The efflux ratio at 2 h, 10 µM in data set [7] stood at 1.5. The apparent permeability from basolateral to apical (Papp B→A) at 2 h, 10 µM in data set [9] stood at 3.1 ×10⁻⁶ cm/s. The hepatocyte CLint at 1 µM in [11] worked out at 25 µL/min/1e6 cells; in data set [15], 17 µL/min/1e6 cells; in data set [16], 6 µL/min/1e6 cells. Moreover, the apparent permeability from apical to basolateral (Papp A→B) at 2 h, 10 µM in [12] turned out to be 2 ×10⁻⁶ cm/s. Moreover, the microsomal CLint at 1 µM in data set [17] came to 16 µL/min/mg; in data set [19] it was 10 µL/min/mg.

One may read the half-life as the time in which the quantity being followed falls by half. A word on the inhibition in vivo: it is the relative decrease from the control value, in per cent. Broadly, the efflux ratio is the permeability from basolateral to apical divided by that in the opposite direction, in the common usage. By Papp B→A is commonly meant how fast a substance crosses the layer from the basolateral side. The term Papp A→B denotes how fast a substance crosses the layer from the apical side.

(Values after ChEMBL document CHEMBL5126603, “Discovery of Clinical Candidate CHF-6366: A Novel Super-soft Dual Pharmacology Muscarinic Antagonist and β2 Agonist (MABA) for the Inhaled Treatment of Respiratory Diseases” (J Med Chem, 2022).)
